In ChEMBL document CHEMBL4811258, “Potent Antimalarials with Development Potential Identified by Structure-Guided Computational Optimization of a Pyrrole-Based Dihydroorotate Dehydrogenase Inhibitor Series” (J Med Chem, 2021):

Columns and labels:
Plasmodium falciparum [1] = experiment: microbe, parasite or virus in culture; conditions: 3D7, 72 h
[2] = Inhibition of Plasmodium falciparum DHODH expressed in Escherichia coli BL21-DE3 using L-dihydroorotate as substrate by steady-state DCIP method
Plasmodium falciparum [3] = system: Plasmodium falciparum

SMILES | EC50 (Plasmodium falciparum [1]) [µM] | IC50 [2] [µM] | EC50 (Plasmodium falciparum [3]) [µM]
Cc1c(-c2c[nH]c3cc(C(F)(F)F)ccc23)c[nH]c1C(=O)N1CC(F)(F)C1 | 0.62 | 16 | –
Cc1c(-c2c[nH]c3cc(C(F)(F)F)ccc23)c[nH]c1C(=O)NCC(F)(F)F | 1.2 | 18 | –
Cc1c(Cc2ccc(F)c(F)c2)c[nH]c1C(=O)NC(C)c1nc[nH]n1 (stereo in doubt; form 2) | – | > 100 | > 10
Cc1c(C2(c3ccc(C(F)(F)F)nc3)CC2)c[nH]c1C(=O)NC(C)c1cn[nH]c1 (stereo in doubt; form 1) | – | – | 1.3
Cc1c(-c2c[nH]c3nc(C(F)(F)F)ccc23)c[nH]c1C(=O)NCC(F)(F)F | 0.05 | 0.5 | –
Cc1[nH]c(C(=O)NC(C)c2cnn(C)c2)c(C)c1Cc1ccc(C(F)(F)F)nc1 (stereo in doubt; form 1) | – | > 30 | > 10
Cc1c(C2(c3cccc(C(F)(F)F)c3)CC2)c[nH]c1C(=O)NC(C)c1nc[nH]n1 (stereo in doubt; form 2) | – | > 30 | 2.8
Cc1c(-c2c[nH]c3nc(C(F)(F)F)ccc23)c[nH]c1C(=O)NC(C)c1nc[nH]n1 (stereo in doubt; form 2) | – | 25 | 2
Cc1c(C2(c3ccc(C(F)(F)F)c(F)c3)CC2)c[nH]c1C(=O)NC(C)c1nc[nH]n1 (stereo in doubt; form 2) | – | 34 | 5.4
Cc1c(-c2n[nH]c3cc(C(F)(F)F)ccc23)c[nH]c1C(=O)NCC(F)(F)F | 0.61 | 22 | –
Cc1cc(C(C)NC(=O)c2[nH]cc(-c3c[nH]c4cc(C(F)(F)F)ccc34)c2C)no1 (stereo in doubt; form 1) | – | > 100 | > 1
Cc1c(C(=O)NC(C)c2nc[nH]n2)[nH]c(Cl)c1Cc1ccc(C(F)(F)F)nc1 (stereo in doubt; form 1) | – | > 100 | > 10
Cc1c(-c2n[nH]c3nc(C(F)(F)F)ccc23)c[nH]c1C(=O)NCC(F)(F)F | > 10 | 3.9 | –
Cc1c(Cc2ccc(S(=O)(=O)N(C)C)cc2)c[nH]c1C(=O)NC1CC1 | 0.7 | 1.5 | –
Cc1c(C2(c3ccc(C(F)F)nc3)CC2)c[nH]c1C(=O)NC(C)c1nc[nH]n1 (stereo in doubt; form 2) | – | > 30 | > 20
Cc1c(Cc2ccc(C(F)(F)F)nc2)c[nH]c1C(=O)NCc1cc[nH]n1 | 1.4 | 17 | –
Cc1cc(C(C)NC(=O)c2[nH]cc(C3(c4ccc(C(F)(F)F)nc4)CC3)c2C)no1 (stereo in doubt; form 2) | – | 80 | 0.0012
Cc1cc(C(C)NC(=O)c2[nH]cc(-c3n[nH]c4cc(C(F)(F)F)ccc34)c2C)no1 (stereo in doubt; form 1) | – | > 100 | > 10
Cc1[nH]c(C(=O)N[C@H](C)c2cn[nH]c2)c(C#N)c1Cc1ccc(C(F)(F)F)nc1 (stereo in doubt; form 1) | – | 42 | > 1
Cc1c(Cc2cccc(F)c2C#N)c[nH]c1C(=O)NC(C)c1nc[nH]n1 (racemic) | 1.1 | 0.48 | –
Cc1c(Cc2ccc(C(F)(F)F)nc2)c[nH]c1C(=O)NC(C)c1nc[nH]n1 (stereo in doubt; form 2) | – | > 100 | 16
Cc1c(Cc2ccc(C(F)(F)F)nc2)c[nH]c1C(=O)NC(C)c1cn[nH]c1 (stereo in doubt; form 2) | – | 6.4 | 0.37
Cc1cc(C(C)NC(=O)c2[nH]cc(C3(c4ccc(C(F)(F)F)nc4)CC3)c2C)n[nH]1 (stereo in doubt; form 1) | 3.3 | – | –
Cc1cc(C(C)NC(=O)c2[nH]cc(Cc3ccc(C(F)(F)F)nc3)c2C)n[nH]1 (stereo in doubt; form 2) | – | 68 | > 10
Cc1c(Cc2ccc(C(F)(F)F)nc2C#N)c[nH]c1C(=O)NC(C)c1nc[nH]n1 (racemic) | 2.3 | 1.9 | –
Cc1c(C2(c3ccc(C(F)(F)F)nc3)CC2)c[nH]c1C(=O)NC(C)c1cc(C#N)[nH]n1 (stereo in doubt; form 1) | 1.7 | – | –
Cc1c(C2(c3ccc(C(F)(F)F)cc3F)CC2)c[nH]c1C(=O)NC(C)c1nc[nH]n1 (stereo in doubt; form 2) | – | > 100 | 0.41
Cc1c(C2(c3ccc(C(F)(F)F)cc3F)CC2)c[nH]c1C(=O)NC(C)c1nc[nH]n1 (stereo in doubt; form 1) | – | 1.2 | 12

SMILES | EC50 (Plasmodium falciparum [1]) [µM] | IC50 [2] [µM] | EC50 (Plasmodium falciparum [3]) [µM]
Cc1c(Cc2ccc(C(F)(F)F)nc2)c[nH]c1C(=O)NC(C)c1cc(C#N)[nH]n1 (stereo in doubt; form 2) | – | 54 | 6.1
CNC(=O)c1cc(C(C)NC(=O)c2[nH]cc(C3(c4ccc(C(F)(F)F)nc4)CC3)c2C)n[nH]1 (stereo in doubt; form 2) | – | 55 | 0.044
CNC(=O)c1cc(C(C)NC(=O)c2[nH]cc(C3(c4ccc(C(F)(F)F)nc4)CC3)c2C)n[nH]1 (stereo in doubt; form 1) | – | 0.39 | 0.52
CNC(=O)c1cc(C(C)NC(=O)c2[nH]cc(Cc3ccc(C(F)(F)F)nc3)c2C)n[nH]1 (stereo in doubt; form 1) | – | 1 | 0.17
CNC(=O)c1cc(C(C)NC(=O)c2[nH]cc(Cc3ccc(C(F)(F)F)nc3)c2C)n[nH]1 (stereo in doubt; form 2) | – | 89 | 4.8
Cc1c(-c2n[nH]c3cc(C(F)(F)F)ccc23)c[nH]c1C(=O)NC1CC1 | 0.25 | 4.1 | –
Cc1c(Cc2ccc(C(F)(F)F)cc2F)c[nH]c1C(=O)NC(C)c1nc[nH]n1 (stereo in doubt; form 2) | – | 36 | 5.8
Cc1c(Cc2ccc(C(F)(F)F)nc2)c[nH]c1C(=O)NC(C)c1cc[nH]n1 (racemic) | 0.043 | 0.27 | –
Cc1c(Cc2ccc(F)c(F)c2)c[nH]c1C(=O)NC(C)c1nc[nH]n1 (stereo in doubt; form 1) | – | 0.4 | 0.72
Cc1c(-c2n[nH]c3cc(C(F)(F)F)ccc23)c[nH]c1C(=O)NC(C)c1cc(C(N)=O)[nH]n1 (racemic) | 0.5 | 32 | –
Cc1c(-c2c[nH]c3nc(C(F)(F)F)ccc23)c[nH]c1C(=O)N1CC(F)(F)C1 | 0.032 | 0.11 | –
Cc1c(C(=O)NC(C)c2nc[nH]n2)[nH]c(Cl)c1Cc1ccc(C(F)(F)F)nc1 (stereo in doubt; form 3) | – | 64 | –
Cc1c(C2(c3ccc(C(F)(F)F)nc3)CC2)c[nH]c1C(=O)NC(C)c1cn[nH]c1 (stereo in doubt; form 2) | – | – | 0.0012
Cc1c(Cc2ccc(C(F)(F)F)nc2)c[nH]c1C(=O)N[C@H](C)C(N)=O | > 10 | > 100 | –
Cc1c(Cc2ccc(C(F)(F)F)nc2)c[nH]c1C(=O)NC(C)c1cnn(C)c1 (stereo in doubt; form 2) | – | – | 0.35
Cc1cc(C(C)NC(=O)c2[nH]c(C)c(Cc3ccc(C(F)(F)F)nc3)c2C)no1 (stereo in doubt; form 2) | – | 53 | > 1
NC(=O)c1c(Cc2ccc(C(F)(F)F)nc2)c[nH]c1C(=O)NC1CC1 | 2.1 | 4.9 | –
Cc1cc(C(C)NC(=O)c2[nH]cc(Cc3ccc(C(F)(F)F)nc3)c2C)no1 (stereo in doubt; form 2) | – | – | 0.45
Cc1c(Cc2ccc(C(F)(F)F)nc2)c[nH]c1C(=O)NC(C)c1cc(C(N)=O)[nH]n1 (stereo in doubt; form 2) | – | 33 | 16
Cc1[nH]c(C(=O)NC(C)c2nc[nH]n2)c(C)c1Cc1ccc(C(F)(F)F)nc1 (stereo in doubt; form 2) | – | 43 | 0.75
Cc1c(C2(c3ccc(C(F)(F)F)nc3)CC2)c[nH]c1C(=O)NC(C)c1cc(C(N)=O)[nH]n1 (stereo in doubt; form 2) | – | 57 | 0.0094
Cc1c(Cc2ccc(F)c3ccncc23)c[nH]c1C(=O)NC(C)c1nc[nH]n1 (stereo in doubt; form 2) | – | 23 | 2.3
Cc1[nH]c(C(=O)NC(C)c2cn[nH]c2)c(C)c1Cc1ccc(C(F)(F)F)nc1 (stereo in doubt; form 2) | – | 11 | 0.19
Cc1c(-c2c[nH]c3nc(C(F)(F)F)ccc23)c[nH]c1C(=O)NC(C)c1nc[nH]n1 (stereo in doubt; form 1) | – | 0.51 | 0.053
Cc1cc(C(C)NC(=O)c2[nH]cc(Cc3ccc(C(F)(F)F)cc3)c2C)no1 (stereo in doubt; form 2) | – | 48 | 6.2
Cc1cc(C(C)NC(=O)c2[nH]c(C)c(Cc3ccc(C(F)(F)F)nc3)c2C#N)no1 (stereo in doubt; form 1) | – | 3.2 | 1.8
Cc1c(C2(c3ccc(C(F)F)nc3)CC2)c[nH]c1C(=O)NC(C)c1nc[nH]n1 (stereo in doubt; form 1) | – | 0.15 | 0.18
